From patent publication US20250090437A1, “COSMETIC COMPOUNDING AGENT, COSMETIC AND PRODUCTION METHOD THEREOF” (MIYOSHI OIL & FAT CO., LTD., priority 2019, published 2025)

How the values were obtained:
[1] = Water retention property test 3 (long term); format: physicochemical; details: for Amount of moisture reduction in 0 to 24 h / Amount of moisture reduction in 24 to 96 h / Amount of moisture reduction per hour / Pre-test moisture rate / Moisture rate after 24 h / Moisture rate after 96 h / Amount of moisture reduction in 96 to 120 h / Moisture rate after 120 h: 80 wt % aqueous solution; for Amount of moisture reduction in 0 to 24 h / Amount of moisture reduction in 24 to 96 h / Amount of moisture reduction in 96 to 120 h: 1.0 g; for Amount of moisture reduction in 0 to 24 h / Amount of moisture reduction in 24 to 96 h / Amount of moisture reduction per hour / Moisture rate after 24 h / Moisture rate after 96 h / Amount of moisture reduction in 96 to 120 h / Moisture rate after 120 h: 40° C. and 25% RH; for Pre-test moisture rate: before the test; for Moisture rate after 24 h / Moisture rate after 96 h / Moisture rate after 120 h: unsealed
Method: In a water retention property test 3, an 80 wt % aqueous solution of each of the compounds C8, C11, C62, C63 and C64 was prepared, followed by using a Karl Fischer moisture meter to confirm that a moisture rate was 20.0 wt %. Next, 1.0 g of each of these samples was added to a screw tube, and this screw tube, while remaining unsealed, was then left to stand still in a thermo-hygrostat set to 40° C. and 25% RH. […] In addition, the water retention property was evaluated by calculating an amount of moisture reduction per hour (mg/h) based on each amount of moisture reduction (mg).

[2] = Water retention property and adherability with respect to healthy hair; design: species or system human; details: for Compound adhesion rate / Post-test moisture rate: healthy hair immersed 60 min in 80 wt % aqueous solution; for Post-test moisture rate: after 24 hours at 40° C., pre-test 7.6%; for Post-test moisture rate / Rate of reduction in moisture: 35 to 40% RH; for Rate of reduction in moisture: healthy hair, 80 wt % aqueous solution, 24 hours at 40° C.
Method: In the following evaluations, a human black hair produced by Beaulax Co., Ltd was used as a healthy hair. A damaged hair was prepared by repeatedly having the healthy hair permed and bleached three times.
An 80 wt % aqueous solution of each of the compounds B1 to B26 (content in terms of anhydride in the cases of the compounds B1 to B23) was prepared, followed by using a Karl Fischer moisture meter (KF-200 by Mitsubishi Chemical Analytech Co., Ltd.) to confirm that a moisture rate was 20.0 wt %. As a healthy hair, there was used a chemically untreated healthy hair (human black hair by Beaulax Co., Ltd). The moisture rate (pre-test moisture rate A) of the hair was measured by an infrared moisture meter (by Kett Electric Laboratory).
After immersion, the hair was taken out, and KimWipes were then used to wipe off the compound until a change in weight was no longer observed, followed by measuring the weight of the hair (post-test hair weight B). The hair from which the compound had been wiped off was then placed into a thermo-hygrostat set to 40° C. and 35 to 40% RH. A moisture rate after 24 hours (post-test moisture rate B) was then measured, followed by calculating a rate of reduction in moisture with the following formula. Likewise, instead of the 80 wt % aqueous solution, evaluation was also performed in a similar manner using only an ion-exchange water (comparative example B4).
Further, an adhesion rate of the compound adhering to the hair was calculated with the following formula. […]

Row | Structure (SMILES) | Amount of moisture reduction in 0 to 24 h ([1]; 0~24 h) [mg] | Amount of moisture reduction in 24 to 96 h ([1]; 24~96 h) [mg] | Amount of moisture reduction per hour ([1]; 0~24 h) [mg/h] | Pre-test moisture rate [1] [%] | Moisture rate after 24 h [1] [%] | Moisture rate after 96 h [1] [%] | Compound adhesion rate [2] [%] | Post-test moisture rate [2] [%] | Rate of reduction in moisture [2] [%] | Amount of moisture reduction in 96 to 120 h ([1]; 96~120 h) [mg] | Amount of moisture reduction per hour ([1]; 24~96 h) [mg/h] | Amount of moisture reduction per hour ([1]; 96~120 h) [mg/h] | Moisture rate after 120 h [1] [%] | Moisture rate of hydrate [1] [%]
1 | CCCCn1cc[n+](C)c1.F[B-](F)(F)F [Comparative example C14] | 64.3 | 134.4 | 2.7 | 20.0 | 14.5 | 0.0 | – | – | – | – | – | – | – | –
2 | CCCCn1cc[n+](C)c1.[Cl-] [Compound B25, 1-butyl-3-methylimidazolium chloride, reference compound] | – | – | – | – | – | – | 1.0 | 4.0 | 47 | – | – | – | – | –
3 | CC(=O)CCC(=O)O.NC(CO)(CO)CO [Compound B17] | – | – | – | – | – | – | 6.9 | 6.5 | 15 | – | – | – | – | –
4 | CC(O)C(=O)O.NC(CO)CO (stereo not drawn) [Working example C117] | 6.7 | 20.1 | 0.3 | 20.0 | 19.5 | 17.8 | – | – | – | 4.0 | 0.3 | 0.2 | 15.8 | 16.6
5 | NC(CO)(CO)CO.O=C(O)CO [Compound B14] | – | – | – | – | – | – | 1.3 | 7.4 | 3 | – | – | – | – | –
6 | CCCC[N+](CCCC)(CCCC)CCCC.[Br-] [Comparative example C13] | 49.1 | 145.8 | 2.0 | 20.0 | 15.9 | 0.7 | – | – | – | – | 2.0 | – | – | –
7 | O [Compound B8] | – | – | – | – | – | – | 1.3 | 6.1 | 20 | – | – | – | – | –
8 | NC(CO)(CO)CO.O=C1OC(C(O)CO)C(O)=C1O (stereo not drawn) [Compound B20] | – | – | – | – | – | – | 2.1 | 6.6 | 14 | – | – | – | – | –
9 | CS(=O)(=O)O.NC(CO)CO [Working example C118] | 6.5 | 20.0 | 0.3 | 20.0 | 19.4 | 17.6 | – | – | – | 4.1 | 0.3 | 0.2 | 15.4 | 16.1
10 | OCC(O)CO [Comparative example C15] | 24.6 | 74.8 | 1.0 | 20.0 | 18.0 | 11.1 | – | – | – | 25.0 | 1.0 | 1.0 | 8.6 | –
11 | O [Compound B21] | – | – | – | – | – | – | 1.1 | 5.8 | 24 | – | – | – | – | –
12 | NC(CO)(CO)CO.O=C(O)CC(O)(CC(=O)O)C(=O)O [Compound B13] | – | – | – | – | – | – | 2.3 | 6.5 | 15 | – | – | – | – | –
